Experimental findings from ChEMBL document CHEMBL4622974, “Leveraging an Open Science Drug Discovery Model to Develop CNS-Penetrant ALK2 Inhibitors for the Treatment of Diffuse Intrinsic Pontine Glioma” (J Med Chem, 2020) are described below.

A value given as a limit tells only on which side of the number the result lay.

Data set [1] deals with T1, Activin receptor type-1 (Homo sapiens, UniProt Q04771).
T1 sequence (Q04771 whole entry): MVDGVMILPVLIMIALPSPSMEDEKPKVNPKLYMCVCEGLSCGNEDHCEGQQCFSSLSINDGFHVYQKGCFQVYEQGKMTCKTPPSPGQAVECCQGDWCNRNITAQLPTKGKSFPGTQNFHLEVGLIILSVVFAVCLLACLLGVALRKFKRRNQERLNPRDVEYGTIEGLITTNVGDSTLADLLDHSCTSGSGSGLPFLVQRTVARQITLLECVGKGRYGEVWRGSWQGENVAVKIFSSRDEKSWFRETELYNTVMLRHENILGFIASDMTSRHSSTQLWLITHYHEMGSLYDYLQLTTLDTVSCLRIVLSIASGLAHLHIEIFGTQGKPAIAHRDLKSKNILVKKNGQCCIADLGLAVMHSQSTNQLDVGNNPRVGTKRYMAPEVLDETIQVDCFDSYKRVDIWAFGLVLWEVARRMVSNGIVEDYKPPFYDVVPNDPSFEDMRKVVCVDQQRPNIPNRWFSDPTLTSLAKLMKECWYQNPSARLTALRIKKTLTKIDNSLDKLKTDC
Kind of data set: Inhibition of human ALK2 using casein as substrate in presence of [gamma-33P]-ATP by radiometric hotspot assay.

Data set [2] deals with T2, TGF-beta receptor type-1 (Homo sapiens, UniProt P36897).
T2 sequence (P36897 whole entry): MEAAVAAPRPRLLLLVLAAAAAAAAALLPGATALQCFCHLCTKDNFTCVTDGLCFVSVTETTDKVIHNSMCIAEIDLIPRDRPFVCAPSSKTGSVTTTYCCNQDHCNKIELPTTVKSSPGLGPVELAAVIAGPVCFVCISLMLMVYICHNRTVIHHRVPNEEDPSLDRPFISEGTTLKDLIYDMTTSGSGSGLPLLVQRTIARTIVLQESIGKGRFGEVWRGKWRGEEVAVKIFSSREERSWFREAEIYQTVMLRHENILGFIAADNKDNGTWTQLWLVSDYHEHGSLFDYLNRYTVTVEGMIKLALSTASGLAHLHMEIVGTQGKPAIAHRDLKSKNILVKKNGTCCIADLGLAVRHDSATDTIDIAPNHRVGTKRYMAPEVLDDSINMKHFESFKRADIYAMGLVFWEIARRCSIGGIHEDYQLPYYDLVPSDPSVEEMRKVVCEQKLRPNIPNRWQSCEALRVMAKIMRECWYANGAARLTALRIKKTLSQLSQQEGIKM
Briefly: Inhibition of human ALK5 using casein as substrate in presence of [gamma-33P]-ATP by radiometric hotspot assay. The class given is ADME.

In data set [3] the target is T1, Activin receptor type-1. Kind of data set: Competitive displacement of PBI-6908 from nanoluciferase-fused ALK2 (unknown origin) expressed in HEK293 cells incubated for 2 hrs by NanoBRET NanoGlo substrate based NanoBRET assay. The class given is cell-based.
Data set [4] has as its target T2, TGF-beta receptor type-1. Briefly: Inhibition of recombinant human ALK5 expressed in HEK293 cells transfected with CAGA-luciferase and Renilla luciferase reporter after 24 hrs by dual luciferase reporter assay. The class given is cell-based. In general terms: In a reporter assay the amount or activity of a reporter protein is the signal.
Data set [5] can be described thus: Selectivity ratio of IC50 for human ALK4 to IC50 for human ALK2. The class given is ADME.
In data set [6] the target is T3, Activin receptor type-1B (Homo sapiens, UniProt P36896).
T3 sequence (P36896 whole entry): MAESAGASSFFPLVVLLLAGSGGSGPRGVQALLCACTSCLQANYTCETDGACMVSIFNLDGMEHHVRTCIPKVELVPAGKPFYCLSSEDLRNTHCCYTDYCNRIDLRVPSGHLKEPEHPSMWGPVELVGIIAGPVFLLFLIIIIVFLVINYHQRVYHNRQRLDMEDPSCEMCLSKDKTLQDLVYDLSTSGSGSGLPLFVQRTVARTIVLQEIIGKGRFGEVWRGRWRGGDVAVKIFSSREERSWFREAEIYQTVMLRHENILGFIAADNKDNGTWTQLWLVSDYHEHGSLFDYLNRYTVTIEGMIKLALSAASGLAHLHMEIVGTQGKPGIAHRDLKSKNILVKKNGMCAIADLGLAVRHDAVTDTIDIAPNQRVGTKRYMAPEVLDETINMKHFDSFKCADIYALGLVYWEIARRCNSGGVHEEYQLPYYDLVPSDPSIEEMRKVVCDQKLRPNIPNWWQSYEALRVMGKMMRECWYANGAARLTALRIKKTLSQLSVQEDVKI
Briefly: Inhibition of human ALK4 using casein as substrate in presence of [gamma-33P]-ATP by radiometric hotspot assay. The class given is ADME.

Data set [7] addresses Voltage-gated inwardly rectifying potassium channel KCNH2 (Homo sapiens, UniProt Q12809). Briefly: Inhibition of human ERG expressed in HEK293 cells after 5 mins by IonWorks barracuda patch clamp method. The class given is cell-based. A general note: In patch-clamp work, channel activity is measured electrically.

Chain of Voltage-gated inwardly rectifying potassium channel KCNH2 (Q12809 whole entry): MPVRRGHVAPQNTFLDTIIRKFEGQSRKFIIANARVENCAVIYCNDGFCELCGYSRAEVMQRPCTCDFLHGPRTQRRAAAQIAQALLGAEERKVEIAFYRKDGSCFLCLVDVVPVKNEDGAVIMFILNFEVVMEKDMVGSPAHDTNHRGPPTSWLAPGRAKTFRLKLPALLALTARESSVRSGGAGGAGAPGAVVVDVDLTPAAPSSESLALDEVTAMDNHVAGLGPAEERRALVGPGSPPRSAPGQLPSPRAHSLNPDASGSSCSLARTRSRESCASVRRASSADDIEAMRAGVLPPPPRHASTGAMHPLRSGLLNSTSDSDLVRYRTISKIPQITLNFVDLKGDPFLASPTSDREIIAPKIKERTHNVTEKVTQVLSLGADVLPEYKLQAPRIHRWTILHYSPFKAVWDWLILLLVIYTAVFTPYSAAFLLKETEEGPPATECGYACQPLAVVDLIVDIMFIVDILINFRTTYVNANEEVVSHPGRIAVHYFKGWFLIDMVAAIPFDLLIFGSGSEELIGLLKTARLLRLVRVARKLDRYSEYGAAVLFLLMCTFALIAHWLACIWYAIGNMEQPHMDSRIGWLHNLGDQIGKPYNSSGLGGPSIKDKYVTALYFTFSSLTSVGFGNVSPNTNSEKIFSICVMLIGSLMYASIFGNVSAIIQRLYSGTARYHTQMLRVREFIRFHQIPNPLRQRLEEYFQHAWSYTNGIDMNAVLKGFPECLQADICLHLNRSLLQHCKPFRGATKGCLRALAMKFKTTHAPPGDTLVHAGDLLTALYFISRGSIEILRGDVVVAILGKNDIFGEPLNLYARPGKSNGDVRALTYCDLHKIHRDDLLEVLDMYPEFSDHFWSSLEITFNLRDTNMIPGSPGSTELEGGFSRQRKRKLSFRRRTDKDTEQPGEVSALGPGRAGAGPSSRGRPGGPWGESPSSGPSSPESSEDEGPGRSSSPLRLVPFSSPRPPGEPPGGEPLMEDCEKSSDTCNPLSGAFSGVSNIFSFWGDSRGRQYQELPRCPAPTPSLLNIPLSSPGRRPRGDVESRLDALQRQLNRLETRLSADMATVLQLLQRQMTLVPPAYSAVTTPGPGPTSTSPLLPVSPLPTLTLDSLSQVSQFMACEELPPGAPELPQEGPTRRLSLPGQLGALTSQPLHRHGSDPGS

`COc1cc(OC)cc(-c2cncc(-c3ccc(N4CCNCC4)cc3)c2C)c1`: the IC50 is 39 nM in data set [1], over 5000 nM in data set [2], 440 nM in data set [3] and over 5000 nM in data set [4].

On to `COc1cc(-c2cncc(-c3ccc(N4CCCNCC4)cc3)c2C)cc(OC)c1OC`, for which the IC50 in data set [1] stood at 13 nM; in data set [2], 3050 nM; in data set [3], 83 nM; in data set [4], 4530 nM.

On to `COc1cc(-c2cncc(-c3ccc(C4=CCN(C)CC4)cc3)c2C)cc(OC)c1OC`, for which the IC50 in data set [1] worked out at 14 nM; in data set [2], 2520 nM; in data set [3], 102 nM; in data set [4], 7800 nM.

In the case of `COc1cc(-c2cncc(-c3ccc(N4CCN(CCF)CC4)cc3)c2C)cc(OC)c1OC`, the IC50 in data set [1] was 17 nM; in data set [2], 3210 nM; in data set [3], 178 nM; in data set [4], over 5000 nM.

For `COc1cc(-c2cncc(-c3ccc(N4CCNCC4)cc3)c2C#N)cc(OC)c1F`, the IC50 was 11 nM in data set [1], 487 nM in data set [2], 49 nM in data set [3] and 1510 nM in data set [4].

For the compound `COc1cc(-c2cncc(-c3ccc(N4CCNCC4)cc3)c2N)cc(OC)c1OC`, the IC50 in data set [1] is 461 nM; in data set [2], over 5000 nM; in data set [3] it was 255 nM; in data set [4], over 5000 nM.

For the compound `COc1cc(-c2cncc(-c3ccc(N4CCNCC4)cc3)c2C2CC2)cc(OC)c1OC`, the IC50 in data set [1] was 42 nM; in data set [2], 4660 nM; in data set [3], 159 nM; in data set [4] it was over 5000 nM.

With `CCc1c(-c2ccc(N3CCNCC3)cc2)cncc1-c1cc(OC)c(OC)c(OC)c1`, the IC50 in data set [1] is 181 nM; in data set [2], over 5000 nM; in data set [3] it was 589 nM; in data set [4], over 5000 nM.

Regarding `COc1cc(-c2cncc(-c3ccc(N4CCNCC4)cc3)c2C#N)cc(OC)c1OC`, the IC50 was determined as 3 nM in data set [1]; 257 nM in data set [6]; 731 nM in data set [2]; 15 nM in data set [3]; 679 nM in data set [4]; 6000 nM in data set [7]. Besides, in data set [5], the “Ratio IC50” value is recorded as 86.

`COc1cc(-c2cncc(-c3ccc(OC4CCN(C)CC4)cc3)c2C)cc(OC)c1OC`: the IC50 in data set [1] came out at 6 nM; in data set [2] it was 1650 nM; in data set [3], 67 nM; in data set [4], 2090 nM.

For the compound `COc1cc(-c2cncc(-c3ccc(CN4CCN(C)CC4)cc3)c2C)cc(OC)c1OC`, the IC50 is 20 nM in data set [1], 2640 nM in data set [2], 108 nM in data set [3] and over 5000 nM in data set [4].

For the compound `COc1cc(-c2cncc(-c3ccc(N4CCS(=O)(=O)CC4)cc3)c2C)cc(OC)c1OC`, the IC50 in data set [1] was 16 nM; in data set [2], 1230 nM; in data set [3], 169 nM; in data set [4], over 5000 nM.

For `COc1cc(-c2cncc(-c3ccc(N4CCN(C(=O)N(C)C)CC4)cc3)c2C)cc(OC)c1OC`, the IC50 in data set [1] is 4 nM; in data set [2] it was over 5000 nM; in data set [3] it was 149 nM; in data set [4] it was over 5000 nM.

As to `COc1cc(-c2cncc(-c3ccc(N4CCNCC4)cc3)c2C(F)(F)F)cc(OC)c1OC`, the IC50 is 67 nM in data set [1], over 5000 nM in data set [2], 184 nM in data set [3] and over 5000 nM in data set [4].

With `COc1cc(-c2cncc(-c3ccc(N4CCN(C(C)C)CC4)cc3)c2C)cc(OC)c1OC`, the IC50 in data set [1] is 7 nM; in data set [2], 2240 nM; in data set [3], 73 nM; in data set [4], 1820 nM; in data set [7], 3100 nM.

Take `COc1cc(-c2cncc(-c3ccc(N4CCOCC4)cc3)c2C)cc(OC)c1OC`: the half-inhibitory concentration (IC50) in data set [1] is 28 nM; in data set [2], 2360 nM; in data set [3], 334 nM; in data set [4], over 5000 nM.

`COc1cc(-c2cncc(-c3ccc(N4CCNCC4)cc3)c2Cl)cc(OC)c1OC`: the IC50 came out at 16 nM in data set [1]; 962 nM in data set [6]; 1330 nM in data set [2]; 57 nM in data set [3]; 9450 nM in data set [4]; 2700 nM in data set [7]. Besides, the “Ratio IC50” value in data set [5] was found to be 60.

Turning to `COc1cc(-c2cncc(-c3ccc(N4CCNCC4)cc3)c2OC)cc(OC)c1OC`, the IC50 in data set [1] was 103 nM; in data set [2], over 5000 nM; in data set [3] it was 233 nM; in data set [4] it was over 5000 nM.

In the case of `COc1cc(-c2cncc(-c3ccc(N4CCNCC4)cc3)c2F)cc(OC)c1OC`, the IC50 in data set [1] amounted to 15 nM; in data set [6], 630 nM; in data set [2], 880 nM; in data set [3], 32 nM; in data set [4], 2180 nM. Further, the “Ratio IC50” value in data set [5] stood at 42.

For `COc1cc(-c2cncc(-c3ccc(C4CCNCC4)cc3)c2C)cc(OC)c1OC`, the IC50 in data set [1] was 9 nM; in data set [2] it was 1750 nM; in data set [3], 54 nM; in data set [4] it was 3420 nM.

`COc1cc(-c2cncc(-c3ccc(N4CCNCC4)cc3)c2)cc(OC)c1OC`: the “Ratio IC50” value in data set [5] is 36. The IC50 in data set [6] amounted to 462 nM.

In the case of `COc1cc(-c2cncc(-c3ccc(N4C[C@@H](C)N[C@@H](C)C4)cc3)c2C)cc(OC)c1OC`, the IC50 in data set [1] was 8 nM; in data set [2] it was 1050 nM; in data set [3] it was 40 nM; in data set [4], 1430 nM; in data set [7] it was 5900 nM.

On to `COc1cc(-c2cncc(-c3ccc(N4CCN(C)CC4)cc3)c2C)cc(OC)c1OC`, for which the IC50 in data set [1] was 9 nM; in data set [2] it was 4850 nM; in data set [3], 56 nM; in data set [4], over 5000 nM.

On to `COc1cc(-c2cncc(-c3ccc(N4CCN(C(C)=O)CC4)cc3)c2C)cc(OC)c1OC`, for which the IC50 in data set [1] was 22 nM; in data set [2], 2520 nM; in data set [3], 267 nM; in data set [4], over 5000 nM.

Usually IC50 stands for the concentration needed to halve the response being measured.
